From ChEMBL document CHEMBL4610060, “Orally bioavailable amine-linked macrocyclic inhibitors of factor XIa” (Bioorg Med Chem Lett, 2020)

Tests used:
[1] = Volume of distribution at steady state in Sprague-Dawley rat at 1.13 mg/kg, iv or 2.27 mg/kg, po measured upto 24 hrs by LC-MS/MS analysis; type: ADME, organism-based; settings: in vivo, read-out: Vdss
[2] = Clearance in Sprague-Dawley rat at 1.13 mg/kg, iv or 2.27 mg/kg, po measured upto 24 hrs by LC-MS/MS analysis; type: ADME, organism-based; settings: in vivo
[3] = AUC in Sprague-Dawley rat at 2.27 mg/kg, po measured upto 24 hrs by LC-MS/MS analysis; type: ADME, organism-based; set-up: time < 24 hr, dose 2.27 mg/kg, route oral; settings: in vivo
[4] = Metabolic stability in rat liver microsomes assessed as half life; type: ADME, Microsome
[5] = Permeability across basolateral to apical side in human Caco2 cells; type: ADME, cell-based; settings: Caco-2, read-out: permeability
[6] = Permeability across apical to basolateral side in human Caco2 cells; type: ADME, cell-based; settings: Caco-2, read-out: permeability
[7] = Oral bioavailability in Sprague-Dawley rat at 2.27 mg/kg measured upto 24 hrs by LC-MS/MS analysis; type: ADME, organism-based; settings: in vivo
Plasma = assay: Anticoagulant activity in human plasma assessed as EC1.5 of activated partial thromboplastin time by coagulometric analysis; type: functional
[8] = Half life in Sprague-Dawley rat at 1.13 mg/kg, iv or 2.27 mg/kg, po measured upto 24 hrs by LC-MS/MS analysis; type: ADME, organism-based; settings: in vivo
[9] = Metabolic stability in human liver microsomes assessed as half life; type: ADME, Microsome
Coagulation factor XI = Coagulation factor XI (Homo sapiens, UniProt P03951); assay: Inhibition of recombinant human activated coagulation factor XI using pyro-Glu-Pro-Arg-pNA as substrate by spectrophotometry
Coagulation factor XI, sequence (P03951 19-387 limits assumed): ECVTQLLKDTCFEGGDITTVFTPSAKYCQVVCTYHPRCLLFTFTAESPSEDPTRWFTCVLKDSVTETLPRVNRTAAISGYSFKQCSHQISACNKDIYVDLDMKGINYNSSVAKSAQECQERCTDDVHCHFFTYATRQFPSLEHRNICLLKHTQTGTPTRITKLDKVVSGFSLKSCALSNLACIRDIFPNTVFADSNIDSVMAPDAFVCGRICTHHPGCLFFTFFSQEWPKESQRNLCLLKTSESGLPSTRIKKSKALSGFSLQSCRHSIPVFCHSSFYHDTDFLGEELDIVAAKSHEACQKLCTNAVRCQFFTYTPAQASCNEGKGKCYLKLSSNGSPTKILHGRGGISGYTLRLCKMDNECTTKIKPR
Coagulation factor XI, sequence (P03951 388-625 limits assumed): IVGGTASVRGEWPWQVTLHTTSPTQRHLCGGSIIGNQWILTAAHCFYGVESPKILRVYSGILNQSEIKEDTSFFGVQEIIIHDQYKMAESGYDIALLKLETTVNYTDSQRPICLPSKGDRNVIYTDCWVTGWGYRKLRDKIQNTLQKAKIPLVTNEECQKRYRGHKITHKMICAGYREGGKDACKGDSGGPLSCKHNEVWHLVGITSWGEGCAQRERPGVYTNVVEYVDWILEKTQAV

[10] = Half life in Sprague-Dawley rat at 0.50 mg/kg, iv or 1.0 mg/kg, po measured upto 24 hrs by LC-MS/MS analysis; type: ADME, organism-based; settings: in vivo
[11] = Protein binding in rat assessed as unbound fraction; type: ADME
[12] = Oral bioavailability in Sprague-Dawley rat at 1.0 mg/kg measured upto 24 hrs by LC-MS/MS analysis; type: ADME, organism-based; settings: in vivo
[13] = Volume of distribution at steady state in Sprague-Dawley rat at 0.50 mg/kg, iv or 1.0 mg/kg, po measured upto 24 hrs by LC-MS/MS analysis; type: ADME, organism-based; settings: in vivo, 0.5 mg/kg, read-out: Vdss
[14] = Clearance in Sprague-Dawley rat at 0.50 mg/kg, iv or 1.0 mg/kg, po measured upto 24 hrs by LC-MS/MS analysis; type: ADME, organism-based; settings: in vivo, 0.5 mg/kg
[15] = AUC in Sprague-Dawley rat at 1.0 mg/kg, po measured upto 24 hrs by LC-MS/MS analysis; type: ADME, organism-based; set-up: dose 1 mg/kg, time < 24 hr, route oral; settings: in vivo
[16] = Clearance in Sprague-Dawley rat at 0.53 mg/kg, iv or 1.06 mg/kg, po measured upto 24 hrs by LC-MS/MS analysis; type: ADME, organism-based; settings: in vivo
[17] = AUC in Sprague-Dawley rat at 1.06 mg/kg, po measured upto 24 hrs by LC-MS/MS analysis; type: ADME, organism-based; set-up: time < 24 hr, dose 1.06 mg/kg, route oral; settings: in vivo
[18] = Half life in Sprague-Dawley rat at 0.53 mg/kg, iv or 1.06 mg/kg, po measured upto 24 hrs by LC-MS/MS analysis; type: ADME, organism-based; settings: in vivo
[19] = Oral bioavailability in Sprague-Dawley rat at 1.06 mg/kg measured upto 24 hrs by LC-MS/MS analysis; type: ADME, organism-based; settings: in vivo
[20] = Volume of distribution at steady state in Sprague-Dawley rat at 0.53 mg/kg, iv or 1.06 mg/kg, po measured upto 24 hrs by LC-MS/MS analysis; type: ADME, organism-based; settings: in vivo, read-out: Vdss
[21] = Clearance in Sprague-Dawley rat at 0.49 mg/kg, iv or 0.98 mg/kg, po measured upto 24 hrs by LC-MS/MS analysis; type: ADME, organism-based; settings: in vivo
[22] = Oral bioavailability in Sprague-Dawley rat at 0.98 mg/kg measured upto 24 hrs by LC-MS/MS analysis; type: ADME, organism-based; settings: in vivo
[23] = Volume of distribution at steady state in Sprague-Dawley rat at 0.49 mg/kg, iv or 0.98 mg/kg, po measured upto 24 hrs by LC-MS/MS analysis; type: ADME, organism-based; settings: in vivo, read-out: Vdss
[24] = AUC in Sprague-Dawley rat at 0.98 mg/kg, po measured upto 24 hrs by LC-MS/MS analysis; type: ADME, organism-based; set-up: time < 24 hr, dose 0.98 mg/kg, route oral; settings: in vivo
[25] = Half life in Sprague-Dawley rat at 0.49 mg/kg, iv or 0.98 mg/kg, po measured upto 24 hrs by LC-MS/MS analysis; type: ADME, organism-based; settings: in vivo
[26] = AUC in Sprague-Dawley rat at 0.61 mg/kg, po measured upto 24 hrs by LC-MS/MS analysis; type: ADME, organism-based; set-up: time < 24 hr, dose 0.61 mg/kg, route oral; settings: in vivo
[27] = Volume of distribution at steady state in Sprague-Dawley rat at 0.31 mg/kg, iv or 0.61 mg/kg, po measured upto 24 hrs by LC-MS/MS analysis; type: ADME, organism-based; settings: in vivo, read-out: Vdss
[28] = Oral bioavailability in Sprague-Dawley rat at 0.61 mg/kg measured upto 24 hrs by LC-MS/MS analysis; type: ADME, organism-based; settings: in vivo
[29] = Clearance in Sprague-Dawley rat at 0.31 mg/kg, iv or 0.61 mg/kg, po measured upto 24 hrs by LC-MS/MS analysis; type: ADME, organism-based; settings: in vivo
[30] = Half life in Sprague-Dawley rat at 0.31 mg/kg, iv or 0.61 mg/kg, po measured upto 24 hrs by LC-MS/MS analysis; type: ADME, organism-based; settings: in vivo
[31] = Half life in Sprague-Dawley rat at 0.72 mg/kg, iv or 1.44 mg/kg, po measured upto 24 hrs by LC-MS/MS analysis; type: ADME, organism-based; settings: in vivo
[32] = AUC in Sprague-Dawley rat at 1.44 mg/kg, po measured upto 24 hrs by LC-MS/MS analysis; type: ADME, organism-based; set-up: time < 24 hr, dose 1.44 mg/kg, route oral; settings: in vivo
[33] = Clearance in Sprague-Dawley rat at 0.72 mg/kg, iv or 1.44 mg/kg, po measured upto 24 hrs by LC-MS/MS analysis; type: ADME, organism-based; settings: in vivo
[34] = Oral bioavailability in Sprague-Dawley rat at 1.44 mg/kg measured upto 24 hrs by LC-MS/MS analysis; type: ADME, organism-based; settings: in vivo
[35] = Volume of distribution at steady state in Sprague-Dawley rat at 0.72 mg/kg, iv or 1.44 mg/kg, po measured upto 24 hrs by LC-MS/MS analysis; type: ADME, organism-based; settings: in vivo, read-out: Vdss

Structure (SMILES)	EC1.5 (Plasma) [µM]	half-life [9] [min]	Ki (Coagulation factor XI) [nM]	other results
COC(=O)Nc1ccc2c(c1)NC(=O)CCCC[C@H](NC(=O)/C=C/c1cc(Cl)ccc1-n1cnnn1)c1nc-2c[nH]1	0.3	90	–	Vd [1]: 0.3 L/kg; clearance [2]: 10 mL/min/kg; AUC at 24 h [3]: 0.024 µM·h; half-life [4]: 76 min; Papp B→A [5]: 6.7 ×10⁻⁶ cm/s; Papp A→B [6]: < 1.5 ×10⁻⁶ cm/s; bioavailability [7]: < 1%; half-life [8]: 60 min
COC(=O)Nc1ccc2c(c1)NCCCCC[C@H](NC(=O)/C=C/c1cc(Cl)ccc1-n1cnnn1)c1nc-2c[nH]1	6.2	6	16	–
CCOC(=O)[C@H]1CCCC[C@H](NC(=O)/C=C/c2cc(Cl)ccc2-n2cnnn2)c2nc(c[nH]2)-c2ccc(NC(=O)OC)cc2N1	0.86	7	0.22	half-life [10]: 90 min; fraction unbound [11]: < 0.002; bioavailability [12]: 7%; Vd [13]: 0.2 L/kg; clearance [14]: 2.8 mL/min/kg; half-life [4]: 34 min; AUC at 24 h [15]: 0.478 µM·h; Papp B→A [5]: 13.3 ×10⁻⁶ cm/s; Papp A→B [6]: < 1.5 ×10⁻⁶ cm/s
COC(=O)Nc1ccc2c(c1)N[C@@H](CO)CCCC[C@H](NC(=O)/C=C/c1cc(Cl)ccc1-n1cnnn1)c1nc-2c[nH]1	0.54	10	0.61	–
COC(=O)c1ccc2c(c1)-c1c[nH]c(n1)[C@@H](NC(=O)/C=C/c1cc(Cl)ccc1-n1cnnn1)C/C=C/CCC(=O)N2	–	6	245	–
COC(=O)Nc1ccc2c(c1)NC(=O)CC/C=C/C[C@H](NC(=O)/C=C/c1cc(Cl)ccc1-n1cnnn1)c1nc-2c[nH]1	0.27	–	–	Papp A→B [6]: < 1.5 ×10⁻⁶ cm/s
COC(=O)Nc1ccc2c(c1)N[C@@H](C(=O)N(C)C)CCCC[C@H](NC(=O)/C=C/c1cc(Cl)ccc1-n1cnnn1)c1nc-2c[nH]1	0.36	14	0.31	–
COC(=O)Nc1ccc2c(c1)N[C@@H](C(F)F)CCCC[C@H](NC(=O)/C=C/c1cc(Cl)ccc1-n1cnnn1)c1nc-2c[nH]1	2	25	1.3	–
COC(=O)Nc1ccc2c(c1)N[C@H](C(F)(F)F)CCCC[C@H](NC(=O)/C=C/c1cc(Cl)ccc1-n1cnnn1)c1nc-2c[nH]1	–	–	370	–
O=C(/C=C/c1cc(Cl)ccc1-n1cnnn1)N[C@H]1C/C=C/CCC(=O)Nc2ccccc2-c2c[nH]c1n2	2.9	3	5.1	–
O=C(/C=C/c1cc(Cl)ccc1-n1cnnn1)N[C@H]1C/C=C/CCC(=O)Nc2ccc(F)cc2-c2c[nH]c1n2	2.5	2	6	–
O=C(/C=C/c1cc(Cl)ccc1-n1cnnn1)N[C@H]1C/C=C/CCC(=O)Nc2ccc(C(=O)O)cc2-c2c[nH]c1n2	1.7	94	3.6	–
COC(=O)Nc1ccc2c(c1)C[C@@H](C(=O)OC)CCCC[C@H](NC(=O)/C=C/c1cc(Cl)ccc1-n1cnnn1)c1nc-2c[nH]1	25	8	24	–
COC(=O)C[C@H]1CCCC[C@H](NC(=O)/C=C/c2cc(Cl)ccc2-n2cnnn2)c2nc(c[nH]2)-c2ccc(NC(=O)OC)cc2N1	1.1	4	2	–
COC(=O)Nc1ccc2c(c1)N[C@@H](C(=O)OC)CCCC[C@H](NC(=O)/C=C/c1cc(Cl)ccc1-n1cnnn1)c1nc-2c[nH]1	0.55	10	0.46	fraction unbound [11]: < 0.002; clearance [16]: 3 mL/min/kg; AUC at 24 h [17]: 0.487 µM·h; half-life [4]: 48 min; half-life [18]: 108 min; bioavailability [19]: 8%; Papp B→A [5]: 10.3 ×10⁻⁶ cm/s; Papp A→B [6]: < 1.5 ×10⁻⁶ cm/s; Vd [20]: 0.3 L/kg
O=C(/C=C/c1cc(Cl)ccc1-n1cnnn1)N[C@H]1C/C=C/CCC(=O)Nc2cc(F)ccc2-c2c[nH]c1n2	16	3	12	–
COC(=O)Nc1ccc2c(c1)N[C@@H](C(=O)O)CCCC[C@H](NC(=O)/C=C/c1cc(Cl)ccc1-n1cnnn1)c1nc-2c[nH]1	0.87	70	0.67	fraction unbound [11]: 0.014; clearance [21]: 7.7 mL/min/kg; bioavailability [22]: 1%; Vd [23]: 0.33 L/kg; AUC at 24 h [24]: 0.014 µM·h; half-life [4]: 75 min; half-life [25]: 60 min; Papp B→A [5]: < 1.5 ×10⁻⁶ cm/s; Papp A→B [6]: < 1.5 ×10⁻⁶ cm/s
COC(=O)Nc1ccc2c(c1)N[C@@H](C)CCCC[C@H](NC(=O)/C=C/c1cc(Cl)ccc1-n1cnnn1)c1nc-2c[nH]1	5.2	7	8.3	–
COC(=O)Nc1ccc2c(c1)N[C@@H](C(=O)O)CCCC[C@H](NC(=O)/C=C/c1cc(Cl)ccc1-n1cnnn1)c1cc-2ccn1	7.1	99	2.6	–
CCOC(=O)[C@H]1CCCC[C@H](NC(=O)/C=C/c2cc(Cl)ccc2-n2cnnn2)c2cc(ccn2)-c2ccc(NC(=O)OC)cc2N1	6.1	30	2.5	half-life [10]: 216 min; fraction unbound [11]: 0.008; bioavailability [12]: 41%; Vd [13]: 1.3 L/kg; clearance [14]: 4.9 mL/min/kg; half-life [4]: 59 min; AUC at 24 h [15]: 1.29 µM·h; Papp B→A [5]: 10.1 ×10⁻⁶ cm/s; Papp A→B [6]: < 1.5 ×10⁻⁶ cm/s
O=C(/C=C/c1cc(Cl)ccc1-n1cnnn1)N[C@H]1CCCCC(=O)Nc2ccccc2-c2c[nH]c1n2	>40	6	48	AUC at 24 h [26]: 0.001 µM·h; Vd [27]: 1.2 L/kg; bioavailability [28]: < 1%; clearance [29]: 53 mL/min/kg; half-life [30]: 30 min; Papp B→A [5]: 20.5 ×10⁻⁶ cm/s; Papp A→B [6]: < 1.5 ×10⁻⁶ cm/s
COC(=O)Nc1ccc2c(c1)N[C@@H](C(F)(F)F)CC/C=C/C[C@H](NC(=O)/C=C/c1cc(Cl)ccc1-n1cnnn1)c1nc-2c[nH]1	>40	29	53	–
COC(=O)Nc1ccc2c(c1)N[C@@H](C(F)(F)F)CCCC[C@H](NC(=O)/C=C/c1cc(Cl)ccc1-n1cnnn1)c1cc-2ccn1	13	95	16	–
COC(=O)Nc1ccc2c(c1)N[C@@H](C(F)(F)F)CCCC[C@H](NC(=O)/C=C/c1cc(Cl)ccc1-n1cnnn1)c1nc-2c[nH]1	2.6	54	1.1	fraction unbound [11]: 0.002; half-life [31]: 84 min; AUC at 24 h [32]: 0.307 µM·h; clearance [33]: 12 mL/min/kg; half-life [4]: 14 min; bioavailability [34]: 9%; Vd [35]: 0.4 L/kg
